This is an account of results in the supplement of paper PMC12137928.

This experiment concerns HCT116. Particulars: 72 h. The essentials: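 HCT116 cells went into 1536-well plates at 250 per well. CellTiter-Glo luminescence was expressed relative to vehicle (0%) and positive control (-100%) and then pattern-corrected. Both IC50 and maximal efficacy were taken from four-parameter Hill fits.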

Counter-ions that a name gives are not always drawn.

Turning to `CN(N=O)C(=O)N[C@@H](C=O)[C@@H](O)[C@H](O)[C@H](O)CO` [Streptozotocin], the IC50 cell viability is, setting by setting: (ICRF193 0 nM) > 45.8 µM; (ICRF193 200 nM) > 45.8 µM.

On to `N#Cc1c(N(CC(=O)O)CC(=O)O)sc(C(=O)O)c1CC(=O)O` [Strontium Ranelate], for which the IC50 cell viability by setting is: (ICRF193 0 nM) > 45.8 µM; (ICRF193 200 nM) > 45.8 µM.

With `O=C1C[C@@H]2OCC=C3CN4CC[C@]56c7ccccc7N1[C@H]5[C@H]2[C@H]3C[C@H]46` [Strychnine], the IC50 cell viability is, setting by setting: (ICRF193 0 nM) > 45.8 µM; (ICRF193 200 nM) > 45.8 µM.

As to `C=Cc1ccccc1` [Styrene], the IC50 cell viability (ICRF193 0 nM) was > 45.8 µM and the IC50 cell viability (ICRF193 200 nM) is > 45.8 µM.

Turning to `C[N+](C)(C)CCOC(=O)CCC(=O)OCC[N+](C)(C)C` [Succinylcholine chloride], the IC50 cell viability reads like this: (ICRF193 0 nM) > 45.8 µM; (ICRF193 200 nM) > 45.8 µM.

Consider `O=C(O)CCC(=O)Nc1ccc(S(=O)(=O)Nc2nccs2)cc1` [Succinylsulfathiazole], for which the IC50 cell viability (ICRF193 0 nM) is > 45.8 µM and the IC50 cell viability (ICRF193 200 nM) is > 45.8 µM.

On to `CC(=O)OC[C@H]1O[C@@](COC(C)=O)(O[C@H]2O[C@H](COC(C)=O)[C@@H](OC(C)=O)[C@H](OC(C)=O)[C@H]2OC(C)=O)[C@@H](OC(C)=O)[C@@H]1OC(C)=O` [Sucrose octaacetate], for which the IC50 cell viability runs as follows: (ICRF193 0 nM) > 45.8 µM; (ICRF193 200 nM) > 45.8 µM.

In the case of `O=S(=O)(O)OC[C@H]1O[C@@](COS(=O)(=O)O)(O[C@H]2O[C@H](COS(=O)(=O)O)[C@@H](OS(=O)(=O)O)[C@H](OS(=O)(=O)O)[C@H]2OS(=O)(=O)O)[C@@H](OS(=O)(=O)O)[C@@H]1OS(=O)(=O)O` [Sucrose octasulfate, sodium salt], the IC50 cell viability (ICRF193 0 nM) is > 45.8 µM and the IC50 cell viability (ICRF193 200 nM) is > 45.8 µM.

On to `OC[C@H]1O[C@@](CO)(O[C@H]2O[C@H](CO)[C@@H](O)[C@H](O)[C@H]2O)[C@@H](O)[C@@H]1O` [Sucrose], for which the IC50 cell viability was > 45.8 µM (ICRF193 0 nM) and > 45.8 µM (ICRF193 200 nM).

With `O=C(O)CCSC[C@H]1O[C@@H]2O[C@H]3[C@H](O)[C@@H](O)[C@@H](O[C@H]4[C@H](O)[C@@H](O)[C@@H](O[C@H]5[C@H](O)[C@@H](O)[C@@H](O[C@H]6[C@H](O)[C@@H](O)[C@@H](O[C@H]7[C@H](O)[C@@H](O)[C@@H](O[C@H]8[C@H](O)[C@@H](O)[C@@H](O[C@H]9[C@H](O)[C@@H](O)[C@@H](O[C@H]1[C@H](O)[C@H]2O)O[C@@H]9CSCCC(=O)O)O[C@@H]8CSCCC(=O)O)O[C@@H]7CSCCC(=O)O)O[C@@H]6CSCCC(=O)O)O[C@@H]5CSCCC(=O)O)O[C@@H]4CSCCC(=O)O)O[C@@H]3CSCCC(=O)O` [Sugammadex], the IC50 cell viability runs as follows: (ICRF193 0 nM) > 45.8 µM; (ICRF193 200 nM) > 45.8 µM.

For the compound `CC1(C)S[C@@H]2[C@H](NC(=O)C(c3ccccc3)S(=O)(=O)O)C(=O)N2[C@H]1C(=O)O` (stereo partly specified) [Sulbenicillin disodium], the IC50 cell viability (ICRF193 0 nM) is > 45.8 µM and the IC50 cell viability (ICRF193 200 nM) was > 45.8 µM.

Regarding `S=C1SCN(Cc2ccccc2)CN1Cc1ccccc1` [Sulbentine], the IC50 cell viability was > 45.8 µM (ICRF193 0 nM) and > 45.8 µM (ICRF193 200 nM).

Regarding `CCOC(=O)c1ccc(NC(=O)CN2CCCCC2)cc1` [Sulcaine], the IC50 cell viability reads like this: (ICRF193 0 nM) > 45.8 µM; (ICRF193 200 nM) > 45.8 µM.

For the compound `Nc1ccc(S(=O)(=O)NC(=O)c2ccccc2)cc1` [Sulfabenzamide], the IC50 cell viability is, setting by setting: (ICRF193 0 nM) > 45.8 µM; (ICRF193 200 nM) > 45.8 µM.

Take `Cc1nc(NS(=O)(=O)c2ccc(N)cc2)nc(C)c1Br` [Sulfabromomethazine]: the IC50 cell viability reads like this: (ICRF193 0 nM) > 45.8 µM; (ICRF193 200 nM) > 45.8 µM.

For `CC(=O)NS(=O)(=O)c1ccc(N)cc1` [Sulfacetamide], the IC50 cell viability is, setting by setting: (ICRF193 0 nM) > 45.8 µM; (ICRF193 200 nM) > 45.8 µM.

Consider `Nc1ccc(S(=O)(=O)Nc2ccc(Cl)nn2)cc1` [Sulfachloropyridazine], for which the IC50 cell viability runs as follows: (ICRF193 0 nM) > 45.8 µM; (ICRF193 200 nM) > 45.8 µM.

With `CCn1ccc(NS(=O)(=O)c2ccc(N)cc2)nc1=O` [Sulfacytine], the IC50 cell viability was > 45.8 µM (ICRF193 0 nM) and > 45.8 µM (ICRF193 200 nM).

Consider `COc1cc(NS(=O)(=O)c2ccc(N)cc2)nc(OC)n1` [Sulfadimethoxine], for which the IC50 cell viability (ICRF193 0 nM) is > 45.8 µM and the IC50 cell viability (ICRF193 200 nM) is > 45.8 µM.

With `COc1ncnc(NS(=O)(=O)c2ccc(N)cc2)c1OC` [Sulfadoxine], the IC50 cell viability is > 45.8 µM (ICRF193 0 nM) and > 45.8 µM (ICRF193 200 nM).

Turning to `CCOc1ccc(NS(=O)(=O)c2ccc(N)cc2)nn1` [Sulfaethoxypyridazine], the IC50 cell viability runs as follows: (ICRF193 0 nM) > 45.8 µM; (ICRF193 200 nM) > 45.8 µM.

Consider `N=C(N)NS(=O)(=O)c1ccc(N)cc1` [Sulfaguanidine], for which the IC50 cell viability by setting is: (ICRF193 0 nM) > 45.8 µM; (ICRF193 200 nM) > 45.8 µM.

With `COc1nccnc1NS(=O)(=O)c1ccc(N)cc1` [Sulfalene], the IC50 cell viability by setting is: (ICRF193 0 nM) > 45.8 µM; (ICRF193 200 nM) > 45.8 µM.

Turning to `Cc1ccnc(NS(=O)(=O)c2ccc(N)cc2)n1` [Sulfamerazine], the IC50 cell viability is, setting by setting: (ICRF193 0 nM) > 45.8 µM; (ICRF193 200 nM) > 45.8 µM.

In the case of `COc1cnc(NS(=O)(=O)c2ccc(N)cc2)nc1` [Sulfameter], the IC50 cell viability runs as follows: (ICRF193 0 nM) > 45.8 µM; (ICRF193 200 nM) > 45.8 µM.

`Cc1cc(C)nc(NS(=O)(=O)c2ccc(N)cc2)n1` [Sulfamethazine]: the IC50 cell viability runs as follows: (ICRF193 0 nM) > 45.8 µM; (ICRF193 200 nM) > 45.8 µM.

Take `Cc1nnc(NS(=O)(=O)c2ccc(N)cc2)s1` [Sulfamethizole]: the IC50 cell viability was > 45.8 µM (ICRF193 0 nM) and > 45.8 µM (ICRF193 200 nM).

`COc1cc(NS(=O)(=O)c2ccc(N)cc2)nc(C)n1` [Sulfamethomidine]: the IC50 cell viability was > 45.8 µM (ICRF193 0 nM) and > 45.8 µM (ICRF193 200 nM).

Turning to `Cc1cc(NS(=O)(=O)c2ccc(N)cc2)no1` [Sulfamethoxazole], the IC50 cell viability is, setting by setting: (ICRF193 0 nM) > 45.8 µM; (ICRF193 200 nM) > 45.8 µM.

For the compound `COc1ccc(NS(=O)(=O)c2ccc(N)cc2)nn1` [Sulfamethoxypyridazine], the IC50 cell viability (ICRF193 0 nM) was > 45.8 µM and the IC50 cell viability (ICRF193 200 nM) was > 45.8 µM.

On to `COc1cc(NS(=O)(=O)c2ccc(N)cc2)ncn1` [Sulfamonomethoxine], for which the IC50 cell viability by setting is: (ICRF193 0 nM) > 45.8 µM; (ICRF193 200 nM) > 45.8 µM.

As for `Nc1ccc(S(N)(=O)=O)cc1` [Sulfanilamide], the IC50 cell viability reads like this: (ICRF193 0 nM) > 45.8 µM; (ICRF193 200 nM) > 45.8 µM.

With `CC(=O)Nc1ccc(S(=O)(=O)Nc2ccc([N+](=O)[O-])cc2)cc1` [Sulfanitran], the IC50 cell viability (ICRF193 0 nM) is > 45.8 µM and the IC50 cell viability (ICRF193 200 nM) is > 45.8 µM.

For the compound `Nc1ccc(S(=O)(=O)Nc2ccnn2-c2ccccc2)cc1` [Sulfaphenazole], the IC50 cell viability is > 45.8 µM (ICRF193 0 nM) and > 45.8 µM (ICRF193 200 nM).

As for `Nc1ccc(S(=O)(=O)Nc2ccccn2)cc1` [Sulfapyridine], the IC50 cell viability reads like this: (ICRF193 0 nM) > 45.8 µM; (ICRF193 200 nM) > 45.8 µM.

For the compound `Nc1ccc(S(=O)(=O)Nc2cnc3ccccc3n2)cc1` [Sulfaquinoxaline], the IC50 cell viability by setting is: (ICRF193 0 nM) > 45.8 µM; (ICRF193 200 nM) > 45.8 µM.

As to `O=C(O)c1cc(/N=N/c2ccc(S(=O)(=O)Nc3ccccn3)cc2)ccc1O` [Sulfasalazine], the IC50 cell viability runs as follows: (ICRF193 0 nM) > 45.8 µM; (ICRF193 200 nM) > 45.8 µM.

As for `Nc1ccc(S(=O)(=O)Nc2nccs2)cc1` [Sulfathiazole], the IC50 cell viability is > 45.8 µM (ICRF193 0 nM) and > 45.8 µM (ICRF193 200 nM).

With `NC(=S)NS(=O)(=O)c1ccc(N)cc1` [Sulfathiourea], the IC50 cell viability is > 45.8 µM (ICRF193 0 nM) and > 45.8 µM (ICRF193 200 nM).

For `Cc1cc(NS(=O)(=O)c2ccc(N)cc2)nc(C)n1` [Sulfisomidine], the IC50 cell viability reads like this: (ICRF193 0 nM) > 45.8 µM; (ICRF193 200 nM) > 45.8 µM.

For `CC(=O)N(c1onc(C)c1C)S(=O)(=O)c1ccc(N)cc1` [Sulfisoxazole acetal], the IC50 cell viability is, setting by setting: (ICRF193 0 nM) > 45.8 µM; (ICRF193 200 nM) > 45.8 µM.

With `Cc1noc(NS(=O)(=O)c2ccc(N)cc2)c1C` [Sulfisoxazole], the IC50 cell viability is > 45.8 µM (ICRF193 0 nM) and > 45.8 µM (ICRF193 200 nM).

As to `O=C1OC(c2ccc(O)c(S(=O)(=O)O)c2)(c2ccc(O)c(S(=O)(=O)O)c2)c2c(Br)c(Br)c(Br)c(Br)c21` [Sulfobromophthalein], the IC50 cell viability reads like this: (ICRF193 0 nM) > 45.8 µM; (ICRF193 200 nM) > 45.8 µM.

Regarding `CC1=C(CC(=O)O)c2cc(F)ccc2/C1=C\c1ccc([S+](C)[O-])cc1` (stereo unspecified) [Sulindac], the IC50 cell viability (ICRF193 0 nM) is > 45.8 µM and the IC50 cell viability (ICRF193 200 nM) was > 45.8 µM.

For the compound `COc1cc(O)c(C(=O)c2ccccc2)cc1S(=O)(=O)O` [Sulisobenzone], the IC50 cell viability by setting is: (ICRF193 0 nM) > 45.8 µM; (ICRF193 200 nM) > 45.8 µM.

Turning to `CC1(C)S[C@@H]2[C@H](NC(=O)[C@H](N)c3ccccc3)C(=O)N2[C@H]1C(=O)OCOC(=O)[C@@H]1N2C(=O)C[C@H]2S(=O)(=O)C1(C)C` [Sultamicillin tosylate], the IC50 cell viability is, setting by setting: (ICRF193 0 nM) > 45.8 µM; (ICRF193 200 nM) > 45.8 µM.

Take `NS(=O)(=O)c1ccc(N2CCCCS2(=O)=O)cc1` [Sulthiame]: the IC50 cell viability is > 45.8 µM (ICRF193 0 nM) and > 45.8 µM (ICRF193 200 nM).

As for `CCN1CCCC1CNC(=O)c1cc(S(=O)(=O)CC)ccc1OC` (stereo unspecified) [Sultopride hydrochloride], the IC50 cell viability is > 45.8 µM (ICRF193 0 nM) and > 45.8 µM (ICRF193 200 nM).

`CNS(=O)(=O)Cc1ccc2[nH]cc(CCN(C)C)c2c1` [Sumatriptan]: the IC50 cell viability is > 45.8 µM (ICRF193 0 nM) and > 45.8 µM (ICRF193 200 nM).

For the compound `CCOCC(O)COc1ccc(NC(=O)CC[S+](C)C)cc1` (stereo unspecified) [Suplatast tosylate], the IC50 cell viability (ICRF193 0 nM) is > 45.8 µM and the IC50 cell viability (ICRF193 200 nM) was > 45.8 µM.

Regarding `CC(C(=O)O)c1ccc(C(=O)c2cccs2)cc1` (stereo unspecified) [Suprofen], the IC50 cell viability was > 45.8 µM (ICRF193 0 nM) and > 45.8 µM (ICRF193 200 nM).

`O=c1n(Cl)c(=O)n(Cl)c(=O)n1Cl` [Symclosene]: the IC50 cell viability (ICRF193 0 nM) was > 45.8 µM and the IC50 cell viability (ICRF193 200 nM) is > 45.8 µM.

In the case of `CNCc1cc(-c2ccccc2F)n(S(=O)(=O)c2cccnc2)c1` [TAK 438], the IC50 cell viability is > 45.8 µM (ICRF193 0 nM) and > 45.8 µM (ICRF193 200 nM).
